Laboratory results published in patent US10072026B2, “Crystalline form of 3-((1R,3s,5S)-3-((7-((5-methyl-1H-pyrazol-3-yl)amino)-1,6-naphthyridin-5-yl)amino)-8-azabicyclo[3.2.1]octan-8-yl)propanenitrile” (priority 2015, dated 2018).
Read-outs that look alike come from different tables or passages of the source.

Experiments:
[1] = test system: IL-13 induced STAT6 phosphorylation in BEAS-2B human lung epithelial cells; assay: AlphaScreen cellular JAK potency assay, BEAS-2B
JAK2 = JAK2 (Homo sapiens (Human), UniProt O60674); assay: LanthaScreen JAK biochemical assay (JAK2)
[2] = test system: IL-4 induced STAT6 phosphorylation in THP-1 human monocytic cells; assay: Cellular JAK potency assay, THP-1
JAK1 = JAK1 (Homo sapiens (Human), UniProt P23458); assay: LanthaScreen JAK biochemical assay (JAK1)
[3] = IL-13 induced STAT6 phosphorylation, BEAS-2B cells
[4] = IL-4 induced STAT6 phosphorylation, THP-1 cells
[5] = BEAS-2B cells, IL-13 induced STAT6 phosphorylation
[6] = THP-1 cells, IL-4 induced STAT6 phosphorylation
[7] = Homo sapiens, BEAS-2B, read-out: BEAS2B pIC50 (converted)
[8] = Homo sapiens, THP-1, read-out: THP-1 IL4 pIC50 (converted)

Sequence of JAK1 (P23458 whole entry): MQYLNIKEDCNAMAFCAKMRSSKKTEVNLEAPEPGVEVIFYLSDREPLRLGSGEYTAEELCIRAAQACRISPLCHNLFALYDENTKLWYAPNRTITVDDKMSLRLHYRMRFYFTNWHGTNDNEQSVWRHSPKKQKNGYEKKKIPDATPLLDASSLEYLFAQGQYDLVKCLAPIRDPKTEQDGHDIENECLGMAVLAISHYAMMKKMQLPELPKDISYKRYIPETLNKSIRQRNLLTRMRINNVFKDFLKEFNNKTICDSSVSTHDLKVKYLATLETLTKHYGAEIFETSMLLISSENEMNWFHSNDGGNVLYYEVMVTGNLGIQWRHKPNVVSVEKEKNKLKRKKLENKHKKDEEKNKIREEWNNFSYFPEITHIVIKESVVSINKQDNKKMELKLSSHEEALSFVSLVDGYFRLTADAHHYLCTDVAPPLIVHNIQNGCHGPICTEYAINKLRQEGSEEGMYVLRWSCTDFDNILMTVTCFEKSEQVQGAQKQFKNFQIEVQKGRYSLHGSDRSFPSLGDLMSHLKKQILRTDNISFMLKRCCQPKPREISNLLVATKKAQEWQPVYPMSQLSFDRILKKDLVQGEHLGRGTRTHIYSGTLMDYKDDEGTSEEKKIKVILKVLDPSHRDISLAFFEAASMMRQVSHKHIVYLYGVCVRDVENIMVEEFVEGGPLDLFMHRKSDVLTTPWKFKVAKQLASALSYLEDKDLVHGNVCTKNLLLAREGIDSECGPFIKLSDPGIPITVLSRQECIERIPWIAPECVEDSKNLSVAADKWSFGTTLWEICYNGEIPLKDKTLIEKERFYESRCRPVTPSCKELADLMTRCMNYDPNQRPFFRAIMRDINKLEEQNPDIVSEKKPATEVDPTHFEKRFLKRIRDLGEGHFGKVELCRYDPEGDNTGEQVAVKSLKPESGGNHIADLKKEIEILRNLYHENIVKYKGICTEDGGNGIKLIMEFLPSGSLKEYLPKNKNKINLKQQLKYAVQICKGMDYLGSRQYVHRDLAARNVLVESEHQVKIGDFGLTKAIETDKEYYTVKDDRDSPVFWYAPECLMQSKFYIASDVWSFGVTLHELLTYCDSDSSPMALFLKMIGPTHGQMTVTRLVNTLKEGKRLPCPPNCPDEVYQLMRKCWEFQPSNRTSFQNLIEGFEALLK
Sequence of JAK2 (O60674 whole entry): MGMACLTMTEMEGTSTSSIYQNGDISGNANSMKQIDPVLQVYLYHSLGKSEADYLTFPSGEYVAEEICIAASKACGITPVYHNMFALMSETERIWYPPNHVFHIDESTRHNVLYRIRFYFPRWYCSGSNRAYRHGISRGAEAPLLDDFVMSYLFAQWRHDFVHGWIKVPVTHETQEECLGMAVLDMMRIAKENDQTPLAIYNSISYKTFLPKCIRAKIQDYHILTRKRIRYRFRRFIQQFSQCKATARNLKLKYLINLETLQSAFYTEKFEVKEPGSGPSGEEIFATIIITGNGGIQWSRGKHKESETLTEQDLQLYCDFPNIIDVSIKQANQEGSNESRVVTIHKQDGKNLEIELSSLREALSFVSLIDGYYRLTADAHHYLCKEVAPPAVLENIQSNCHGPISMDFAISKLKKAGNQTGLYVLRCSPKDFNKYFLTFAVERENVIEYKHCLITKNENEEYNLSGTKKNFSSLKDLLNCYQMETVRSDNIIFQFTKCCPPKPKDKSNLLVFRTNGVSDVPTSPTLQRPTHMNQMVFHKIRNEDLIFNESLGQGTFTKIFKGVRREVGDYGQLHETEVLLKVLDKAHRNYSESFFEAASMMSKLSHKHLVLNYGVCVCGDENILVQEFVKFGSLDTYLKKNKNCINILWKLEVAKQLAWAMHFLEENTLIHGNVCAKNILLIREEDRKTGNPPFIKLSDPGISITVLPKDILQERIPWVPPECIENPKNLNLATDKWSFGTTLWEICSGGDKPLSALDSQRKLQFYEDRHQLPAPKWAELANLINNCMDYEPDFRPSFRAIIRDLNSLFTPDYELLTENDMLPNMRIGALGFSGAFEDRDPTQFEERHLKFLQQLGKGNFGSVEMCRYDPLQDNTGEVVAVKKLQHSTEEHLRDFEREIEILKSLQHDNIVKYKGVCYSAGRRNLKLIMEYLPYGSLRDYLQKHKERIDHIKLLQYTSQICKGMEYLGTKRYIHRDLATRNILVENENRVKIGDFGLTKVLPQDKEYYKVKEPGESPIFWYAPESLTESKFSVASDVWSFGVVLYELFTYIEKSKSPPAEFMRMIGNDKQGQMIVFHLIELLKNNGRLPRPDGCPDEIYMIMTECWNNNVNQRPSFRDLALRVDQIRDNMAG

Structure (SMILES): Cc1cc(Nc2cc3ncccc3c(N[C@@H]3C[C@H]4CCC[C@@H](C3)N4Cc3cccnc3)n2)n[nH]1 [Example 1-47]
- BEAS2B pIC50 [1, 3]: A (A represents a pEC50 value≥7.5 (EC50≤32 nM))
- JAK 2 (pKi) (JAK2): A (A represents a pKi value≥10 (Ki≤0.1 nM))
- THP-1 IL4 pIC50 [2, 4]: A (A represents a pEC50 value≥7.5 (EC50≤32 nM))

Structure (SMILES): Cc1cc(Nc2cc3ncccc3c(N[C@@H]3C[C@H]4CCC[C@@H](C3)N4C(=O)c3ccccc3)n2)n[nH]1 [Example 2-25]
- BEAS2B pIC50 [1, 3]: A (A represents a pEC50 value≥7.5 (EC50≤32 nM))
- JAK 2 (pKi) (JAK2): A (A represents a pKi value≥10 (Ki≤0.1 nM))
- THP-1 IL4 pIC50 [2, 4]: A (A represents a pEC50 value≥7.5 (EC50≤32 nM))

Structure (SMILES): CCC1(S(=O)(=O)N2[C@@H]3CCC[C@H]2C[C@H](Nc2nc(Nc4cc(C)[nH]n4)cc4ncccc24)C3)CC1 [Example 4-20]
- BEAS2B pIC50 [1, 3]: A (A represents a pEC50 value≥7.5 (EC50≤32 nM))
- JAK 2 (pKi) (JAK2): A (A represents a pKi value≥10 (Ki≤0.1 nM))
- THP-1 IL4 pIC50 [2, 4]: A (A represents a pEC50 value≥7.5 (EC50≤32 nM))

Structure (SMILES): COc1cnc2cc(Nc3cc(C)[nH]n3)nc(N[C@@H]3C[C@H]4CC[C@@H](C3)N4CC(C)C)c2c1 [Example 6-14]
- BEAS2B pIC50 [1, 5]: A (A represents a pEC50 value≥7.5 (EC50≤32 nM))
- JAK 1 (pKi) (JAK1): B (B represents a pKi value between 9 and 10 (Ki between 1 nM and 0.1 nM))
- THP-1 IL4 pIC50 [2, 6]: A (A represents a pEC50 value≥7.5 (EC50≤32 nM))

Structure (SMILES): COc1cnc2cc(Nc3cc(C)[nH]n3)nc(N[C@@H]3C[C@H]4CC[C@@H](C3)N4CCCF)c2c1 [Example 6-16]
- BEAS2B pIC50 [1, 5]: B (B represents a pEC50 value between 6.7 and 7.5 (EC50 between 200 nM and 32 nM))
- JAK 1 (pKi) (JAK1): B (B represents a pKi value between 9 and 10 (Ki between 1 nM and 0.1 nM))
- THP-1 IL4 pIC50 [2, 6]: B (B represents a pEC50 value between 6.7 and 7.5 (EC50 between 200 nM and 32 nM))

Structure (SMILES): COc1cnc2cc(Nc3cc(C)[nH]n3)nc(N[C@@H]3C[C@H]4CC[C@@H](C3)N4CC(F)(F)F)c2c1 [Example 6-17]
- IC50 [1, 7]: < 31.6 nM
- Ki (JAK1; read-out: JAK 1 (pKi) (converted)): 0.1 to 1 nM
- IC50 [2, 8]: < 31.6 nM

Structure (SMILES): Cc1cc(Nc2cc3ncc(S(C)(=O)=O)cc3c(N[C@@H]3C[C@H]4CC[C@@H](C3)N4Cc3ccncc3)n2)n[nH]1 [Example 6-59]
- BEAS2B pIC50 [1, 5]: C (C represents a pEC50 value<6.7 (EC50>200 nM))
- JAK 2 (pKi) (JAK2): A (A represents a pKi value≥10 (Ki≤0.1 nM))

Structure (SMILES): CCC(C)C(=O)N1[C@@H]2CC[C@H]1C[C@H](Nc1nc(Nc3cc(C)[nH]n3)cc3nccc(OC)c13)C2 (some centres unmarked) [Example 7-4]
- BEAS2B pIC50 [1, 5]: B (B represents a pEC50 value between 6.7 and 7.5 (EC50 between 200 nM and 32 nM))
- JAK 1 (pKi) (JAK1): B (B represents a pKi value between 9 and 10 (Ki between 1 nM and 0.1 nM))
- THP-1 IL4 pIC50 [2, 6]: B (B represents a pEC50 value between 6.7 and 7.5 (EC50 between 200 nM and 32 nM))

Structure (SMILES): COc1ccnc2cc(Nc3cc(C)[nH]n3)nc(N[C@@H]3C[C@H]4CC[C@@H](C3)N4C(=O)C(F)F)c12 [Example 7-5]
- IC50 [1, 7]: 31.6 to 200 nM
- Ki (JAK1): 0.1 to 1 nM
- IC50 [2, 8]: 31.6 to 200 nM

Structure (SMILES): Cc1cc(Nc2nc(N[C@@H]3C[C@H]4CC[C@@H](C3)N4S(=O)(=O)c3cccnc3)c3cccnc3c2F)n[nH]1 [Example 8-4]
- BEAS2B pIC50 [1, 5]: B (B represents a pEC50 value between 6.7 and 7.5 (EC50 between 200 nM and 32 nM))
- JAK 1 (pKi) (JAK1): B (B represents a pKi value between 9 and 10 (Ki between 1 nM and 0.1 nM))
- THP-1 IL4 pIC50 [2, 6]: B (B represents a pEC50 value between 6.7 and 7.5 (EC50 between 200 nM and 32 nM))

Structure (SMILES): Cc1cc(Nc2nc(N[C@@H]3C[C@H]4CC[C@@H](C3)N4S(=O)(=O)c3cncc(F)c3)c3cccnc3c2F)n[nH]1 [Example 8-5]
- BEAS2B pIC50 [1, 5]: A (A represents a pEC50 value≥7.5 (EC50≤32 nM))
- JAK 1 (pKi) (JAK1): B (B represents a pKi value between 9 and 10 (Ki between 1 nM and 0.1 nM))
- THP-1 IL4 pIC50 [2, 6]: B (B represents a pEC50 value between 6.7 and 7.5 (EC50 between 200 nM and 32 nM))
